Results reported in US20250127840A1, “METHOD FOR ACTIVATING DENDRITIC CELLS AND METHOD FOR ACTIVATING NATURAL KILLER CELLS, HELPER T CELLS, KILLER T CELLS, B CELLS, OR MACROPHAGES” (TOYO SHINYAKU CO., LTD., priority 2023, published 2025).

Assays:
NK cells = experiment: Test 3 NK cell cytotoxicity of spleen cells against calcein-stained YAC-1 target cells; format: cell-based, mouse; settings: test substance 1 μg/mL, 18 hours, then YAC-1 target cells 4 hours, control set to 1
Experimental: After dissection of a C57BL/6J mouse (8 weeks old), spleen cells were isolated, and a cell suspension prepared by dilution in a 10% fetal bovine serum-RPMI 1640 medium was seeded at 100 µL/well so that the cells were seeded at 5×10^6 cells/well in a 96-well plate. To the seeded cells, a medium (0.5% DMSO-10% fetal bovine serum-RPMI 1640 medium) prepared to have a total concentration of test substances of 1 μg/mL (for young barley leaf juice powder, the concentration of young barley leaf juice ingredient excluding dextrin was 1 μg/mL) was added at 100 μL/well, and the resultant was cultured for 18 hours in a 5% CO2 incubator (“CO2 Incubator” manufactured by ASTEC) at 37° C.
After culture, the plate was centrifuged (at 1,000 rpm for 10 minutes) using a centrifuge. 150 μL of the supernatant was removed, and 150 μL of 1% BSA-RPMI 1640 was added. This process was repeated once more. After that, YAC-1 cells (stained with calcein) sensitive to NK cells were added as target cells, and the resultant was cultured for 4 hours.
After culture, the plate was centrifuged (at 1,000 rpm for 10 minutes) using a centrifuge, and the supernatant was collected in a 96-well black plate. The collected supernatant was measured for fluorescence intensity (at an excitation wavelength of 490 nm and a fluorescence wavelength of 515 nm) using a microplate reader (“SpectraMax i3x” manufactured by Molecular Devices), and the NK cell cytotoxicity was evaluated.
The NK cell cytotoxicity (relative value) is shown in Table 5 with the value of the control set to 1. A higher relative value of NK cell cytotoxicity indicates greater activation of NK cells. […] Even if dietary fiber (cellulose), Vitamin D, or Spirulina, which are known to have immune-stimulating effects, was added, the NK cells were not activated.

[1] = tested on: bone marrow-derived dendritic cells (including both cDCs and pDCs); experiment: Test 1 (A) TNF-α gene expression in bone marrow-derived dendritic cells (real-time PCR); format: cell-based, mouse; settings: test substance 10 μg/mL, 72 hours; TNF-α/β-actin, control with no test substance set to 1
Experimental: After dissection of a C57BL/6J mouse (8 weeks old), bone marrow mononuclear cells were sampled from the femur and tibia, and cultured using a differentiation induction medium (RPMI 1640 medium containing 10% fetal bovine serum, 100 μM of 2-mercaptoethanol, and 100 ng/ml of Flt3 ligand). […] After the medium was removed from each well, 100 μL of a differentiation induction medium containing 0.5% DMSO, which was prepared so that a total concentration of the test substances was 10 μg/mL (for young barley leaf juice powder, the concentration of young barley leaf juice ingredient excluding dextrin was 10 μg/mL), was added to each well and cultured for 72 hours. After that, the medium was removed from each well, and RNA was collected using the RNeasy Mini Kit (manufactured by QIAGEN). From the obtained RNA, a gene expression level (mRNA expression level) of TNF-α was measured by the real-time PCR method using the One Step TB Green® PrimeScript™ RT-PCR Kit II <Perfect Real Time> (manufactured by TaKaRa). For a primer, Mm_Il12B_1_SG QuantiTect Primer Assay and Mm_Tnf1_SG QuantiTect Primer Assay (manufactured by QIAGEN) were used.

## C=C1CC[C@H](O)C/C1=C/C=C1\CCC[C@]2(C)[C@@H]([C@H](C)CCCC(C)C)CC[C@@H]12 [compound 2, Vitamin D3]
NK cells
  NK cell cytotoxicity (relative value): not activated
NK cells; listed as Comparative Example 5
  NK cell cytotoxicity (relative value): 0.93

## Cellulose [compound 1]
NK cells
  NK cell cytotoxicity (relative value): not activated
NK cells; listed as Comparative Example 4
  NK cell cytotoxicity (relative value): 1.05

## β-glucan [compound 3]
[1]
  TNF-α gene expression level (relative value): 1.17
NK cells
  NK cell cytotoxicity (relative value): 1.04
